Measurements published in patent US20180015144A1, “AGONISTS OF THE NOGO-A S1PR PATHWAY FOR THE TREATMENT OF GLIOBLASTOMA” (UNIVERSITAT ZURICH, priority 2015, published 2018).

Tests used:
S1PR2 = S1PR2 (Homo sapiens, UniProt O95136); conditions: cited from earlier work
other S1P receptors = conditions: cited from earlier work
[1] = biological target: sphingosin-1 phosphate (S1P) receptor 2 (S1PR2) (human) (UniProt O95136); assay: cell-based or functional assay
GBM MVEC [2] = assay: Mean traction forces of adhered cells on nanopillars coated with Nogo-A proteins; format: cell-based, human
Protocol: (§1) For time-lapse- and force generation experiments, Vybrant/Dil (Invitrogen, 1:200)-labeled GBM MVEC (10^4 cells ml^−1) were added onto the nanopillar structures. The imaging process was started 1 h after seeding GBM MVEC on nanopillars. To calculate the traction force exerted by GBM MVEC on the nanopillar surface, the deflection of the nanopillar tip was imaged with confocal microscopy using a Leica confocal microscope SP5 with a63x, oil immersion, NA1.43 objective.
(§2) During image acquisition, GBM MVEC were kept at 37° C. and 10% CO2. Following laser wavelengths were used to acquire images of nanopillar arrays and Di-labeled cells: 488 nm (nanopillar structures) and 546 nm (Dil).
To quantitatively address the effects of coated Nogo-A proteins on adhesion between endothelial cells (GBM MVEC) and nanopillars, nanopillars were coated with Nogo-A Delta 20, Nogo-A Delta 21, or Fibronectin (blank condition).
To calculate the total force applied by endothelial cells (GBM MVEC) on the substrates, the average displacement of 800-5000 nanopillars per single cell was used. Single GBM MVEC were imaged for a total time of 20 min, with a scanning ratio of 30 s per frame. For each condition, at least three individual GBM MVEC were analyzed.
To address the role of Nogo-A receptors, endothelial cells were pre-incubated for 30 min before seeding with the pharmacological blocker of S1PR2 (JTE-013, 10 μM) (Tocris Bioscience), with the pharmacological blocker of S1PR1 and S1PR3 (VPC 23019, 10 μM) (Tocris Bioscience), or with the pharmacological blocker of S1PR1, 3, 4, and 5 (FTY720, 10 μM) (Tocris Bioscience).
(§3) To quantitatively address the acute effects of soluble Nogo-A proteins on GBM MVEC retraction, Dil-labeled endothelial cells on nanopillars coated with 25 μg*ml^−1 human Fibronectin were treated 30 min after cell seeding with soluble Nogo-A Delta 20 and Nogo-A Delta 21 at 1 μM. Single GBM MVEC were then imaged for a total time of 1.5 h, with a scanning ratio of 30 s per frame. The nanopillar displacements were recorded as sequence images when the GBM MVEC applied forces on the nanopillar surface. For each condition, at least three individual GBM MVEC were analyzed. To address the role of Nogo-A receptors, endothelial cells were cultured for 30 min before incubating the cells for another 30 min with the pharmacological blocker of S1PR2 (JTE-013, 10 μM) (Tocris Bioscience), with the pharmacological blocker of S1PR1 and S1PR3 (VPC 23019, 10 μM) (Tocris Bioscience), or with the pharmacological blocker of S1PR1, 3, 4, and 5 (FTY720, 10 μM) (Tocris Bioscience). Then soluble Nogo-A Delta 20 (at 1 μM) or Nogo-A Delta 21 (at 1 μM) was added and lamellipodia and filopodia were imaged for 1h. The displacements (x) of the nanopillar tips induced by whole endothelial cells (for experiments with coated Nogo-A proteins) or by single endothelial filopodia (for experiments with soluble Nogo-A proteins) were measured using the program Diatrack (Powerful Particle Tracking, Semasopht). Finally, corresponding traction forces were calculated using the formula F=k*x, where k represents the spring constant of the nanopillars, 78.76 nN/μm.

GBM MVEC filopodia = assay: Peak traction forces of filopodia on nanopillars, soluble Nogo-A proteins; format: cell-based, human
Protocol: as §1, §2, §3

GBM MVECs = assay: Transwell migration assay (VEGF-A + fibronectin induced); format: cell-based, human; conditions: for migration potential despite Nogo-A Delta 20 exposure, blocker alone: pre-incubation with blocker 10 μM; for VEGF+FN-induced migration: protein coated on the underside of the insert, different concentrations
Protocol: For the migration assays, the undersides of 24-well plate inserts (FluoroBlock, BD Falcon) were coated with 0.5 ml PBS containing 10 μg*ml^−1 fibronectin (recombinant human fibronectin, Biopur AG) and different concentrations of Nogo-A Delta 21, Nogo-A Delta 20 and Nogo-66 (R&D Systems) and incubated for 1 h at 37° C. Endothelial cells (GBM MVECs) were starved in migration medium (DMEM+0.25% BSA) 4 h before detachment with accutase (PAA Laboratories). Cells were resuspended in migration medium (1 Mio ml^−1) and labeled with calcein AM (Molecular Probes, 4 μg ml^−1), followed by washing with HBSS and resuspending in migration medium (125,000 cells ml^−1). The coated inserts were washed and the bottom chamber was prepared by adding migration medium with or without human VEGF-A (PeproTech Inc., 10 ng ml^−1). The inserts were then put in an empty 24-well plate (BD Falcon) and calcein AM-labeled endothelial cells (50,000 cells per insert) were added.
The loaded inserts were transferred to the prepared cluster plate and incubated at 37° C., 5% CO2 for 4 h. A cell titration plate was prepared by adding different cell numbers (50,000/25,000/12,500/6,250/3,125/1,563/782 cells per well) in triplicates in 1.2 ml migration medium and incubated in parallel. The fluorescence was measured after 4 h by a cytofluorometer (Tean Infinite Pro 200) and the number of migrated cells was calculated based on the titration curve.
To ask how co-signaling of Nogo-A Delta 20/Nogo-66 coated to the underside of transwell inserts and of its receptors affect cell migration, calcein-AM labeled GBM MVECs were incubated for 1 h with the pharmacological blockers of-the Nogo-A Delta 20 receptor S1PR2 (JTE-013, 1 μM, 10 μM), with the pharmacological blocker of S1PR1 and S1PR3 (VPC 23019, 10 μM) (Tocris Bioscience), and with the competitive inhibitor of the Nogo-66 receptor NgR1 (NEP1-40, 4.6 μg/ml) during calcein-AM labeling. After washing, the cell medium was again supplied with these pharmacological blockers, prior to cell addition in the upper chamber of the transwell insert.

GBM MVEC [3] = assay: Time-lapse imaging of lamellipodia and filopodia retraction on nanopillars, soluble Nogo-A proteins; format: cell-based, human
Protocol: as §1, §2
To quantitatively address the acute effects of soluble Nogo-A proteins on GBM MVEC retraction, Dil-labeled endothelial cells on nanopillars coated with 25 μg*ml^−1 human Fibronectin were treated 30 min after cell seeding with soluble Nogo-A Delta 20 and Nogo-A Delta 21 at 1 μM. Single GBM MVEC were then imaged for a total time of 1.5 h, with a scanning ratio of 30 s per frame. The nanopillar displacements were recorded as sequence images when the GBM MVEC applied forces on the nanopillar surface. For each condition, at least three individual GBM MVEC were analyzed. […] Finally, corresponding traction forces were calculated using the formula F=k*x, where k represents the spring constant of the nanopillars, 78.76 nN/μm.

VEGFR2 [4] = assay: VEGFR2 phosphorylation at Tyr1175 and total VEGFR2 in HUVECs, western blot; format: cell-based; conditions: 15 min, protein 1 μM
Protocol: (§4) For the different treatment conditions HUVECs were seeded on 8 well dishes (LabTek chamber slides, immunofluorescence) or 6 well dishes (western blot) and left for 2 to 3 days until the culture was confluent. After a 4 h starvation of the cells in EBM-2 medium (Lonza, Switzerland), the cells were treated with Nogo-A Delta 20 (1 μM), Nogo-A Delta 20 (1 μM) and VEGF-A ([…]), Nogo-A Delta 21 (1 μM), Nogo-A Delta 21 (1 μM) and VEGF ([…]), or VEGF-A alone ([…]) in EBM-2 medium, respectively. The cells were either fixed in 4% formaldehyde for 15 min at room temperature or lysed in RIPA buffer. After fixation, HUVECs were stained with anti-phosphoVEGFR2 antibody (pTyr1175, #2478, Cell Signaling), F-actin (phalloidin Alexa Fluor 633, Molecular Probes) and DAPI. The same antibodies were used to detect VEGFR2 and phosphoVEGFR2 in western blot.

VEGFR2 [5] = assay: VEGFR2 phosphorylation at Tyr1175 in HUVECs, immunofluorescent antibody staining; format: cell-based; conditions: protein 1 μM
Protocol: as §4

[6] = tested on: endothelial tip cells within the glioblastoma; assay: Injection by osmotic minipumps in a mouse model of glioblastoma, endothelial tip cell count; format: in vivo; conditions: 20 days post-injection, versus scrambled Nogo-A Delta 20
Text: Coronal brain sections (40 μm) of glioblastoma-bearing mice (20 days post-injection, 20D-PI) were perfused with FITC Lectin (green) to visualize perfused blood vessels and stained for Endomucin to visualize blood vessels including endothelial tip cells (red) and the general nuclear marker DAPI (blue). The boxed areas are enlarged in d-f and in g-i. (a-f). Endomucin^+ endothelial tip cells (red, arrows) and FITC Lectin^+ established blood vessel (green) (d-f) are shown within the glioblastoma. Endomucin seems to be specific for blood vessels within the glioblastoma (red) (as compared to Endomucin^− blood vessels in the surrounding normal brain; green). (d,f,g,i) Note the nicely visualized Endomucin^+ endothelial tip cells including filopodial protrusions (red, arrows) (g) within the glioblastoma. (j) Injection of Nogo-A Delta 20 decreases the mean number of endothelial tip cells within the glioblastoma, showing its inhibitory effect on mouse glioblastoma blood vessels.
GL261 glioma cell implantation into adult (two months old) C57BL/6 animals was performed as previously described (Aulwurm et al., Int J Cancer 2006;118, 1728-1735; Biollaz et al., Eur J Immunol 2009;39, 1323-1333j). Briefly, a total of 2×10^4 GL261 cells were inoculated through a borehole placed 1 mm lateral and 2 mm dorsal to the bregma at 3 mm depth using a Hamilton syringe. […]

[7] = pre-incubation with blocker 10 μM, Nogo-A Delta 20-coated nanopillars
[8] = pre-incubation with blocker 10 μM, Nogo-A Delta 20 1 μM

Chain of sphingosin-1 phosphate (S1P) receptor 2 (S1PR2) (human) (O95136 whole entry): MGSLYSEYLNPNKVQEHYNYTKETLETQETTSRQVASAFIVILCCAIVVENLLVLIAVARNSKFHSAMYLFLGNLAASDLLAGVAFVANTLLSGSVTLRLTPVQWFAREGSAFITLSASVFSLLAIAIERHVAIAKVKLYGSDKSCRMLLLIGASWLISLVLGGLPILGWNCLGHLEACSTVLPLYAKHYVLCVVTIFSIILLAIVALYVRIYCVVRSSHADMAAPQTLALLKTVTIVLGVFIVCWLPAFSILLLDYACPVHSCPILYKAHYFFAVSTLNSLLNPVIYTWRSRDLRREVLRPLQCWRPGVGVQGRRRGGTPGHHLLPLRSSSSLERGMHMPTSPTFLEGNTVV
Chain of S1PR2 (O95136 whole entry): as above

Cc1cc(C(=O)Cn2cc(C#N)ccc2=O)c(C)n1Cc1ccccc1 [CYM-5520]
selectivity for S1PR2 (S1PR2): highly selective
activation of other S1P receptors (other S1P receptors): do not activate

Nogo-A Delta 20 (ligand)
mean traction forces of GBM MVECs on Nogo-A Delta 20-coated nanopillars [1]: 12 nN
peak traction forces of GBM MVEC filopodia on nanopillars, soluble Nogo-A Delta 20 at 1 µM [1]: 10 nN

CCCCCCCCc1ccc(CCC(N)(CO)CO)cc1 [FTY720]
effect of blocker on mean traction forces induced by Nogo-A Delta 20 coating (GBM MVEC [2]; [7]): did not decrease
effect of blocker on average peak traction forces of Nogo-A Delta 20 treated filopodia (GBM MVEC filopodia; [8]): did also decrease

NEP1-40: competitive antagonist of Nogo-66, inhibitor of the Nogo-66 receptor NgR1 (RIYKGVIQAIQKSDEGHPFRAYLESEVAISEELVQKYSNS; UniProt Q9NQC3 1055-1094, looked up, fragment)
migration potential upon exposure to Nogo-66 coating (GBM MVECs; pre-incubation with NEP1-40): significantly increases

CCCCCCCCc1cccc(NC(=O)[C@H](N)COP(=O)(O)O)c1 [VPC 23019]
effect of blocker on mean traction forces induced by Nogo-A Delta 20 coating (GBM MVEC [2]; [7]): did not decrease
effect of blocker on average peak traction forces of Nogo-A Delta 20 treated filopodia (GBM MVEC filopodia; [8]): did also decrease
inhibitor effect of Nogo-A Delta 20 on migration, combined blockers (GBM MVECs; combined pre-incubation of VPC 23019 with JTE-013): strong reduction of the inhibitor effect
migration potential despite Nogo-A Delta 20 exposure, blocker alone (GBM MVECs): no effect on its own

Cc1ccc(Sc2ccc(C3SCCS3)cc2[N+](=O)[O-])cc1 [XAX-162]
selectivity for S1PR2 (S1PR2): highly selective
activation of other S1P receptors (other S1P receptors): do not activate

Cc1nn(C)c2nc(NNC(=O)Nc3cc(Cl)nc(Cl)c3)cc(C(C)C)c12 [JTE-013]
mean traction forces induced by Nogo-A Delta 20 coating after blocker (GBM MVEC [2]; [7]): ~4.1 nN
average peak traction forces of Nogo-A Delta 20 treated filopodia after blocker (GBM MVEC filopodia; [8]): ~4.5 nN
effect of blocker on soluble Nogo-A Delta 20-induced retraction of lamellipodia and filopodia (GBM MVEC [3]; [8]): counterbalanced
migration potential despite Nogo-A Delta 20 exposure, blocker alone (GBM MVECs): significantly increases

B1: Nogo-A Delta 20: Nogo-A specific inhibitory domain, 182 aa; human aa 567-748 (SEQ ID NO 002), rat aa 544-725 (SEQ ID NO 001) (protein, UniProt Q9NQC3 567-748, looked up, fragment)
chain: TGTKIAYETKMDLVQTSEVMQESLYPAAQLCPSFEESEATPSPVLPDIVMEAPLNSAVPSAGASVIQPSSSPLEASSVNYESIKHEPENPPPYEEAMSVSLKKVSGIKEEIKEPENINAALQETEAPYISIACDLIKETKLSAEPAPDFSDYSEMAKVEQPVPDHSELVEDSSPDSEPVDLF
mean traction forces and pillar displacements induced by adhered cells (change) (GBM MVEC [2]; protein coated on nanopillars): reduced
mean traction forces on the underlying nanopillars (GBM MVEC [2]; protein coated on nanopillars): ~12 nN
peak traction forces of filopodia on the underlying nanopillars (GBM MVEC filopodia; soluble protein 1 μM): ~10 nN
amount of phosphoVEGFR2 protein (VEGFR2 [4]; with VEGF-A): reduced
total amount of VEGFR2 protein (VEGFR2 [4]; with VEGF-A): reduced
VEGFR2 phosphorylation, protein alone (VEGFR2 [4]; without VEGF-A): did not induce
retraction of GBM MVEC lamellipodia and filopodia (GBM MVEC [3]; soluble protein 1 μM, over 30 min to 1 h): retraction
phosphoVEGFR2 after 30 min (VEGFR2 [5]; with VEGF-A for 30 min): no phosphoVEGFR2 was detectable
VEGFR2 phosphorylation at Tyr1175 compared to Nogo-A Delta 21 conditions (VEGFR2 [5]; with VEGF-A, peak after 15 min): considerably lower
mean number of endothelial tip cells within the glioblastoma [6]: decreases
VEGF+FN-induced migration (GBM MVECs): dose-dependently inhibited

B2: Nogo-66: inhibitory domain of Nogo, 66 aa; human aa 1055-1120 (SEQ ID NO 004), rat aa 1026-1091 (SEQ ID NO 003) (protein)
chain: RIYKGVIQAIQKSDEGHPFRAYLESEVAISEELVQKYSNSALGHVNCTIKELRRLFLVDDLVDSLK
VEGF+FN-induced migration (GBM MVECs): dose-dependently inhibited
